# Source: EP4623908A1, “USE OF (-)-EPIGALLOCATECHIN GALLATE COMPOUND” (CF Pharmtech, Inc., priority 2022, dated 2024)
# What was measured:
# [1] = Plasma pharmacokinetics in rats after tracheal nebulization, intravenous injection and oral gavage (Example 1); assay type: in vivo, SD rats; details: for AUC(0-t) / Cmax: male, Sprague-Dawley; for AUC(0-t) / Cmax / F: rat plasma
# Text: Example 1: Plasma pharmacokinetics study in rats after administration of EGCG via tracheal nebulization, intravenous injection, and oral gavage.
# Materials: EGCG, content > 98wt%.
# Preparation of tracheal nebulization solution: Accurately weigh the EGCG compound and dissolve it in Solvent 1 to prepare a clear and transparent drug solution. Solvent 1 is composed of purified water, citric acid, and sodium citrate.
# Preparation of intravenous injection and oral gavage solutions: Accurately weigh the EGCG compound and dissolve it in saline.
# Animals: Clean-grade male SD rats, provided by Qinglongshan Animal Breeding Farm in Jiangning District, Nanjing City, with a body weight range of 160-200g.
# Tracheal Nebulization (inh): Rats in each tracheal nebulization group were anesthetized with isoflurane and fixed in a restraint device. An anesthetic laryngoscope was used to press the animal's tongue root and expose the glottis. A micro liquid nebulizer needle (blunt tip) filled with a specific amount of EGCG solution, was gently inserted into the trachea. The drug was nebulized into the lungs, the needle was quickly withdrawn, and the rat was removed from the holder, with its head rotated left and right to ensure even distribution of the drug across the lung lobes. The nebulized inhalation doses were 1.6 mg/kg, 3.2 mg/kg, and 6.4 mg/kg, with 5 rats in each dose group.
# Oral Gavage (po): The dosage for each rat was determined based on body weight. An appropriate size syringe and gavage tube were used to administer the drug orally. The dose was 60 mg/kg, with 5 rats.
# Intravenous Injection (iv): EGCG was administered via tail vein injection. The dose was 3.2 mg/kg, with 5 rats in total.
# Blood samples were collected from the experimental groups via the orbital venous plexus before administration (0 min) and at 5 min, 15 min, 30 min, 1 h, 2 h, 4 h, and 6 h after administration (8 sampling points in total), with approximately 50-100 µL of whole blood collected at each point.
# After collection at the specified time points, blood samples were placed in heparinized tubes, centrifuged, and plasma was separated into centrifuge tubes, then stored at -70°C for subsequent analysis.
# Mass spectrometry conditions: Determined using UPLC-MS/MS. Chromatographic conditions: Determined using. Pharmacokinetic parameters were calculated using the WinNonlin pharmacokinetic software with statistical moment methods for each animal.
# [2] = Drug concentration in rat plasma and lungs after tracheal nebulization and oral gavage (Example 2); assay type: in vivo, rats; details: for Cmax / AUC(0-t): plasma; for AUC(0-t): read-out: Plasma AUC0-t
# Experimental: As shown in Example 1, after inhalation (such as tracheal nebulization) administration of 1.6 mg/kg EGCG and oral gavage administration of 60 mg/kg EGCG, the AUC0-t in rat plasma were similar. Based on this, this example investigates the changes in drug concentration in rat plasma and lungs over time after a single lower dose of tracheal nebulization (0.8 mg/kg) compared to oral gavage (60 mg/kg) of EGCG. Both the tracheal nebulization and oral gavage groups consist of 5 rats each.
# 2.1 Blood Sampling Method: Blood was taken via femoral artery. Samples were taken at 30 minutes, 2 hours, 4 hours, and 6 hours post-administration (4 sampling points). After blood collection, 0.9 wt% physiological saline was used to lavage the lungs twice, then the entire lung was removed, dried with filter paper, and stored at -20°C until further analysis.
# 2.2 Plasma Sample Processing Method: 1 mL of plasma was mixed with 3 mL of ethyl acetate solution, vortexed, centrifuged, and the supernatant was evaporated to dryness. The residue was reconstituted with a reconstitution solution, vortexed, and 100 µL was used for analysis of plasma drug concentration.
# 2.3 Lung Tissue Sample Processing Method: Lung tissue samples were weighed, and 3 times the volume of physiological saline (w:v) was added to homogenize. 1 mL of the homogenate was mixed with 3 mL of ethyl acetate solution, vortexed, centrifuged, and the supernatant was evaporated to dryness. The residue was reconstituted with a reconstitution solution, vortexed, and 100 µL was used for analysis of lung drug concentration.
# [3] = cited from earlier work
# [4] = inhaled, tracheal nebulization (inh) 1.6 mg/kg
# [5] = inhaled, tracheal nebulization (inh) 3.2 mg/kg
# [6] = inhaled, tracheal nebulization (inh) 6.4 mg/kg
# [7] = intravenous injection (iv) 3.2 mg/kg
# [8] = inhaled, tracheal nebulization (inh.0.8mg/kg)
# [9] = tracheal nebulization (inh.0.8mg/kg)
structure (smiles),measurement,setting,value
"O=C(O[C@@H]1Cc2c(O)cc(O)cc2O[C@@H]1c1cc(O)c(O)c(O)c1)c1cc(O)c(O)c(O)c1 [EGCG, (-)-Epigallocatechin gallate]",AUC(0-t),[1]; [4],409 ± 75.6 ng·h/mL
same,Cmax,[1]; [4],298 ± 91.9 ng/mL
same,AUC(0-t),[1]; [5],1120 ± 220 ng·h/mL
same,Cmax,[1]; [5],1120 ± 127 ng/mL
same,AUC(0-t),[1]; [6],1860 ± 595 ng·h/mL
same,Cmax,[1]; [6],2020 ± 658 ng/mL
same,AUC(0-t),[1]; [7],1680 ± 614 ng·h/mL
same,Cmax,[1]; [7],1920 ± 789 ng/mL
same,AUC(0-t),[1]; oral gavage (po) 60 mg/kg,372 ± 167 ng·h/mL
same,Cmax,[1]; oral gavage (po) 60 mg/kg,118 ± 73 ng/mL
same,dose ratio between oral gavage and inhalation when achieving the same plasma exposure level,"[1]; po 60 mg/kg: inh 1.6 mg/kg, rat",37.5 times
same,F,[1]; oral gavage (po) 60 mg/kg,1.2±0.0%
same,F,[1]; tracheal nebulization (inh) 1.6 mg/kg,48.7±9.0%
same,F,[1]; tracheal nebulization (inh) 3.2 mg/kg,66.9±13.1%
same,F,[1]; tracheal nebulization (inh) 6.4 mg/kg,55.3±17.7%
same,Kp,"[2]; lung and plasma, inhaled, after inhalation 0.8 mg/kg, read-out: drug concentration in the lungs relative to that in plasma (higher)",100
same,Lung AUC0-t,[2]; oral gavage (po. 60mg/kg),115 ng·h/mL
same,Lung Cmax,[2]; oral gavage (po. 60mg/kg),34.5 ng/mL
same,Cmax,[2]; [8],153 ng/mL
same,AUC(0-t),[2]; [8],292 ng·h/mL
same,Cmax,[2]; oral gavage (po. 60mg/kg),46 ng/mL
same,AUC(0-t),[2]; oral gavage (po. 60mg/kg),136 ng·h/mL
same,Lung AUC0-t,[2]; [9],30891 ng·h/mL
same,Lung Cmax,[2]; [9],12720 ng/mL
same,serum transaminases,[3]; daily oral intake at doses equal to or higher than 800 mg,significantly increased serum transaminases
same,body weight of patients,[3]; oral,significantly reduce the body weight
